Experimental data from patent US10087404B2, “Biological corrosion inhibitor for metals” (KURARAY CO., LTD., priority 2014, dated 2018).

Columns and labels:
[1] = system: strain Methanococcus maripaludis KA-1; experiment: Biological corrosion suppression test (eluted iron concentration from iron flake); type: cell-based; conditions: 37° C., eluted iron measured at 7, 14, 21 and 28 days
Description: A biological corrosion suppression test of 3-Methylglutaraldehyde was performed as follows.
The liquid A was purged with a N2 gas for approximately 10 minutes and heated in an autoclave at 121° C. for 20 minutes, and then the liquid C, liquid E, liquid S, and liquid V were added thereto. 20 ml of the resulting mixture liquid was introduced into each of vials containing a sterilized iron flake (0.08 g of iron foil (10 mm length×10 mm width×0.1 mm thickness: Sigma-Aldrich 356808-G)). Each vial was purged with a gas (CO2 gas was mixed into N2 gas so as to give final concentration of 20% CO2 gas) for 5 minutes and then quickly closed with a butyl rubber cap, and the cap was fixed securely with an aluminum seal. After that, 0.5 ml (10^6 to 10^9 cells/ml) of the strain Methanococcus maripaludis KA-1 was added with a syringe, and 3-methylglutaraldehyde was further added so as to give the concentration shown in FIG. 1. Each vial was allowed to stand at 37° C., and the concentration of eluted iron was measured at 7 days, 14 days, 21 days, and 28 days for checking the progress of the biological corrosion of the iron flake. […]

[2] = Contact of acetal compound A with hydrochloric acid aqueous solution pH 4.0, analysed by gas chromatography; type: physicochemical; conditions: nitrogen atmosphere
Description: Hydrochloric acid was added to distilled water to adjust the pH to 4.0, thereby preparing a hydrochloric acid aqueous solution. To 100 g of the hydrochloric acid solution was added 2.0 g of an acetal compound represented by the following formula:
[drawing 5] (hereinunder, referred to as acetal compound A), and the mixture was stirred at 80° C. under nitrogen atmosphere. After 1 hour, a part was taken and analyzed by a gas chromatography. As a result, it was confirmed that 97.2% of the acetal compound A was consumed and 3-methylglutaraldehyde was produced at 82.6%. [Conditions of Gas Chromatography]
Hydrochloric acid was added to distilled water to adjust the pH to 4.0, thereby preparing a hydrochloric acid aqueous solution. To 100 g of the hydrochloric acid solution was added 2.0 g of the acetal compound A, and the mixture was stirred at 30° C. under nitrogen atmosphere. After 50 hours, a part was taken and analyzed by a gas chromatography in the same manner as in Example 3. As a result, it was confirmed that 52.5% of the acetal compound A was consumed and 3-methylglutaraldehyde was produced at 47.3%.

acetal compound A consumed ([2]; hydrochloric acid aqueous solution pH 4.0, 30° C., after 50 hours) | acetal compound A consumed ([2]; hydrochloric acid aqueous solution pH 4.0, 80° C., after 1 hour) | Structure (SMILES) | addition concentration at which the concentration of eluted iron was suppressed to a sufficiently low level [1]
– | – | CC(CC=O)CC=O [3-methylglutaraldehyde] | 1 ppm
– | – | O=CCCCC=O [glutaraldehyde, reference compound] | 100 ppm
52.5% | 97.2% | CC(CC=O)CC1OCCO1 (stereo not shown) [acetal compound A] | –
